The source of these data is ChEMBL document CHEMBL1201862, “PubChem BioAssay data set” (2004).

Each structure is given as a SMILES string.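 Test compounds were applied to cells in 96-well plates for 48 hours at 5 doses. GI50: concentration for 50% inhibition of growth.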 The source made the active and inactive calls. No stated cut-off is given here; in the data, active = GI50 up to about 1.1 µM and inactive = higher. Bounds are passed on as bounds.

What all share (assay): growth of human tumour cells (NCI), 48 h
The subject of test [1] is HT-29.
Test [2] deals with Hs-578T.
Test [3] deals with 786-0.
For test [4], the system named is Malme-3M.
Test [5] has as its system T47D.
Test [6] relates to SF-268.
Test [7] concerns M14.
For test [8], the system named is TK-10.
Test [9] deals with SF-539.
In test [10] the test system is SW-620.
The subject of test [11] is CCRF-CEM.
In test [12] the test system is RPMI-8226.
The subject of test [13] is SF-295.
For test [14], the system named is HCT-15.
For test [15], the system named is HOP-62.
Test [16] has as its system NCI-H522.
Test [17] relates to CAKI-1.
The test system of test [18] is OVCAR-8.
The subject of test [19] is EKVX.

For the compound `CCOc1cc(NC(C)=O)ccc1C(=O)NNC(=O)c1ccccc1OC(C)=O`, the GI50 is 34 µM (inactive) in test [1]; > 52 µM (inactive) in [2]; 4.53 µM (inactive) in test [3]; 21.7 µM (inactive) in [4]; 8.55 µM (inactive) in test [5]; 7.24 µM (inactive) in test [6]. Moreover, the GI50 was 7.18 µM (inactive) in test [7]; 1.5 µM (inactive) in test [8]; 12.5 µM (inactive) in [9]; 4.01 µM (inactive) in test [10]; 4.22 µM (inactive) in test [11]; 3 µM (inactive) in test [12]. Further, the GI50 in [13] is 8.36 µM (inactive); in [14] it was 4.37 µM; in test [15], 8.61 µM (inactive); in test [16] it was 5.83 µM (inactive); in test [17], 3.21 µM (inactive); in [18], 6.3 µM (inactive). Also, the GI50 in test [19] was 5.18 µM (inactive).
In the case of `CN(C)Cc1cc(/N=N/c2ccc(Cl)cc2)ccc1O`, the GI50 was 12.6 µM (inactive) in test [1]; 15 µM (inactive) in test [2]; 12.8 µM (inactive) in test [3]; 14 µM (inactive) in test [4]; 12.4 µM (inactive) in test [5]; 14.8 µM (inactive) in test [6]. In addition, the GI50 was 9.75 µM (inactive) in [7]; 15 µM (inactive) in test [8]; 18.1 µM (inactive) in [9]; 16.4 µM (inactive) in test [10]; 17.8 µM (inactive) in [11]; > 10 µM (inactive) in test [12]. The GI50 is 16.5 µM (inactive) in test [13]; 15.1 µM in test [14]; 10.1 µM (inactive) in test [15]; 13.5 µM (inactive) in test [16]; 15.4 µM (inactive) in test [17]; 16.9 µM (inactive) in test [18]. Besides, the GI50 in test [19] is 18.3 µM (inactive).
Consider `O=C1CC(Nc2ccccc2)c2c(Cl)sc(Cl)c21` (centres undefined), for which the GI50 in [1] was 1.7 µM (inactive); in test [2] it was 2.42 µM (inactive); in test [3] it was 0.234 µM (active); in test [4], 1.42 µM (inactive); in test [5], 1.48 µM (inactive); in test [6], 0.778 µM (active). For the same compound, the GI50 was 1.66 µM (inactive) in test [7]; 1.81 µM (inactive) in test [8]; 0.527 µM (active) in [9]; 0.369 µM (active) in test [10]; 0.127 µM (active) in [11]; < 0.01 µM (active) in test [12]. For the same compound, the GI50 was 5.11 µM (inactive) in test [13]; 0.767 µM in [14]; 2.57 µM (inactive) in [15]; 0.139 µM (active) in test [16]; 0.65 µM (active) in [17]; 1.4 µM (inactive) in test [18]. In test [19], the GI50 was 1.76 µM (inactive).
In the case of `CCN1/C(=C/c2ccc3ccccc3[n+]2CC)C=Cc2ccccc21`, the GI50 in test [1] is 1.14 µM (inactive); in [2], 1.01 µM (active); in test [3] it was 2.32 µM (inactive); in [4], 1.39 µM (inactive); in test [5], 0.22 µM (active); in [6] it was 1.27 µM (inactive). For the same compound, the GI50 in test [7] was 0.851 µM (active); in test [8] it was 2.81 µM (inactive); in [9] it was 1.89 µM (inactive); in test [10], 0.762 µM (active); in test [11], 0.26 µM (active); in [12] it was 0.19 µM (active). Also, the GI50 in test [13] was 0.479 µM (active); in test [14] it was 4.89 µM; in [15], 0.805 µM (active); in [16], 0.266 µM (active); in test [17] it was 10 µM (inactive); in test [18], 0.555 µM (active). Also, the GI50 in test [19] was 1.72 µM (inactive).
For the compound `[N-]=[N+]=Nc1c(Cc2ccccc2)c(Cl)nc2ccccc12`, the GI50 in test [1] is 31.6 µM (inactive); in [2], 21.3 µM (inactive); in test [3] it was 35.6 µM (inactive); in [4], 21.1 µM (inactive); in [5] it was 32.6 µM (inactive); in test [6] it was 33.6 µM (inactive). Further, the GI50 in test [7] was 20.8 µM (inactive); in test [8] it was 23.8 µM (inactive); in test [9] it was 21.7 µM (inactive); in test [10], 33.4 µM (inactive); in [11], 39.8 µM (inactive); in test [12], 38.3 µM (inactive). Besides, the GI50 was 22.2 µM (inactive) in [13]; 35.2 µM in test [14]; 22.4 µM (inactive) in test [15]; 27.5 µM (inactive) in [16]; 21.4 µM (inactive) in [17]; 20.8 µM (inactive) in [18]. Also, the GI50 in [19] is 27.2 µM (inactive).
For `Cc1oc2c(cc(O)c3cc(O)ccc32)c2cccc1-2`, the GI50 is > 100 µM (inactive) in [1]; > 100 µM (inactive) in [2]; > 100 µM (inactive) in [3]; > 100 µM (inactive) in [4]; 42.1 µM (inactive) in [5]; > 100 µM (inactive) in [6]. In addition, the GI50 in test [7] is > 100 µM (inactive); in [8] it was > 100 µM (inactive); in test [9], > 100 µM (inactive); in test [10] it was > 100 µM (inactive); in [11], 43.5 µM (inactive); in test [12], > 100 µM (inactive). Also, the GI50 in test [13] is > 100 µM (inactive); in test [14] it was greater than 100 µM; in test [15], > 100 µM (inactive); in test [16], 35.2 µM (inactive); in [17], > 100 µM (inactive); in [18], > 100 µM (inactive). Also, the GI50 in test [19] was > 100 µM (inactive).
On to `COc1ccc([S+]([O-])Cc2cc(OC)c(OC)c(OC)c2)cc1` (centres undefined), for which the GI50 is 31.3 µM (inactive) in [1]; > 100 µM (inactive) in test [2]; > 100 µM (inactive) in test [3]; 58.3 µM (inactive) in test [4]; > 100 µM (inactive) in test [5]; 97.5 µM (inactive) in [6]. For the same compound, the GI50 in test [7] is 35.2 µM (inactive); in test [8], > 100 µM (inactive); in test [9] it was 56.5 µM (inactive); in test [10] it was 30.3 µM (inactive); in [11], 41.3 µM (inactive); in test [12], 42.2 µM (inactive). Further, the GI50 in [13] is 47.3 µM (inactive); in [14], 30.4 µM; in [15], 45.5 µM (inactive); in test [16] it was 51.3 µM (inactive); in test [17], 56.9 µM (inactive); in test [18], 62.5 µM (inactive). Also, in test [19], the GI50 is > 100 µM (inactive).
With `O=C(NNC(=O)c1ccccc1Cl)c1ccccc1O`, the GI50 in test [1] was 23.8 µM (inactive); in [2], 41.9 µM (inactive); in [3] it was 87.1 µM (inactive); in [4] it was 4.24 µM (inactive); in [5] it was > 100 µM (inactive); in test [6], 10.6 µM (inactive). Besides, the GI50 was 39.7 µM (inactive) in test [7]; > 100 µM (inactive) in test [8]; > 100 µM (inactive) in [9]; 71.6 µM (inactive) in test [10]; 44.1 µM (inactive) in [11]; > 100 µM (inactive) in [12]. Besides, the GI50 in test [13] is 32.7 µM (inactive); in test [14], 21.7 µM; in [15] it was 31.8 µM (inactive); in test [16], 12.2 µM (inactive); in test [17], 41.3 µM (inactive); in [18], 19.8 µM (inactive). In addition, the GI50 in test [19] is 16.3 µM (inactive).
`O=C1CCSc2c(cnc3ccccc23)N1`: the GI50 in test [1] is > 100 µM (inactive); in test [2], 31.3 µM (inactive); in [3], > 100 µM (inactive); in test [4], > 100 µM (inactive); in test [5] it was > 100 µM (inactive); in [6] it was > 100 µM (inactive). In addition, the GI50 in test [7] was > 100 µM (inactive); in test [8], 71.6 µM (inactive); in test [9], 59.3 µM (inactive); in test [10], > 100 µM (inactive); in test [11] it was > 100 µM (inactive); in [12], > 100 µM (inactive). Further, the GI50 in [13] is > 100 µM (inactive); in test [14], greater than 100 µM; in test [15], > 100 µM (inactive); in [16], > 100 µM (inactive); in test [17], 56.8 µM (inactive); in [18], > 100 µM (inactive). Moreover, the GI50 in test [19] is 32.1 µM (inactive).
For `[N-]=[N+]=Nc1ccc2c(c1)Sc1ccccc1N2CCCCN1CCN(C(=O)CCNC(=O)Cc2ccc(C(=O)c3ccccc3)cc2)CC1`, the GI50 in [1] is 1.98 µM (inactive); in [2], 17.7 µM (inactive); in [3], 3.76 µM (inactive); in test [4] it was 5.2 µM (inactive); in test [5], 5.36 µM (inactive); in [6], 3.84 µM (inactive). The GI50 in test [7] was 4.75 µM (inactive); in test [8], 13.2 µM (inactive); in test [9], 6.27 µM (inactive); in test [10] it was 9.66 µM (inactive); in test [11], 1.79 µM (inactive); in test [12], 1.58 µM (inactive). For the same compound, the GI50 was 3.78 µM (inactive) in test [13]; 2.64 µM in [14]; 8.45 µM (inactive) in test [15]; 2.45 µM (inactive) in test [16]; 8.61 µM (inactive) in [17]; 7.03 µM (inactive) in [18]. For the same compound, the GI50 in test [19] is 3.18 µM (inactive).
`Cc1cc(O)nc2cc3oc4ccccc4c3cc12`: the GI50 in test [1] was 44.8 µM (inactive); in test [2], 0.562 µM (active); in [3], 25.2 µM (inactive); in test [4], > 30.1 µM (inactive); in test [5], > 100 µM (inactive); in test [6] it was 28.1 µM (inactive). Moreover, the GI50 in test [7] was > 100 µM (inactive); in test [8], 30.6 µM (inactive); in test [9] it was 39.8 µM (inactive); in test [10], 35.2 µM (inactive); in test [11], 11.5 µM (inactive); in test [12], 37.9 µM (inactive). In addition, the GI50 was > 100 µM (inactive) in [13]; greater than 61.2 µM in test [14]; > 100 µM (inactive) in test [15]; 34.1 µM (inactive) in [16]; > 100 µM (inactive) in test [17]; > 100 µM (inactive) in test [18]. Besides, in [19], the GI50 is 0.0448 µM (active).
